Data: patent US12599597B2, “Substituted N-benzhydrylacetamide inhibitors of jumanji domain histone demethylases for the treatment of cancer” (University of Kentucky Research Foundation, priority 2020, dated 2026)
Values belong to the compound of their own block, whether it stands above or below them.

Legend:
Wnt signaling = experiment: TOPFlash (Wnt) reporter assay in stable HEK293T cell line; format: cell-based; conditions: for Percent inhibition at 1 μM: Table 3, Wnt reporter assay at 1 μM
Description: Wnt signaling is a key target for multiple human cancers, including but not limited to colon cancer, liver cancer, and lung cancer. To identify novel Wnt regulators by high throughput screening, a stable HEK293T cell line containing the TOPFlash reporter was established. Since β-catenin is often activated by mutations in the Wnt pathway, it is important to inhibit Wnt signaling downstream of β-catenin activity. Therefore, the screen was specifically designed to identify Wnt inhibitors that target events downstream of β-catenin. The Wnt signaling was activated by treating cells with lithium chloride to inhibit GSK3 and to stabilize β-catenin, mimicking the constitutively active Wnt signaling in cancer cells. Through this screen, a family of novel Wnt inhibitors that inhibited Wnt signaling at a 0.5-10 μM concentrations (Table 1) was identified.
After 6 h, the cells were treated with 25 mM LiCl to activate Wnt signaling. The inhibition ratio of each compound was determined (Table 1).
For the SAR studies, 58B1 (VMS-7-133) was re-synthesized. Additionally, SD70, a commercial KDM4 inhibitor, was both purchased and re-synthesized (VMS-7-175). […] VMS-7-195 is a biotinylated analog of 58B1. […] Specific KDM inhibitors may be used to target specific KDMs, such as KDM3A, which is highly expressed in many human cancers.
Identification of a CBA-1 as a novel Wnt inhibitor. The present inventors routinely use TOPFlash reporter assay for Wnt inhibitor screening. To mimic the constitutively active Wnt signaling found in CRC cells, Wnt signaling was activated by inhibiting GSK3 and stabilizing β-catenin. From screening in house small-molecule libraries, CBA-1 (FIG. 4) was identified that inhibited Wnt signaling in TOPFlash reporter assay. To validate the screening results, CBA-1 was tested in CRC cells.

Jarid1B (KDM5B) = Jarid1B (KDM5B) (Homo sapiens, UniProt Q9UGL1); experiment: Histone demethylase assay, purified enzyme panel; format: biochemical; conditions: Reference inhibitor
Description: (§1) Histone Demethylase Assay
(§2) To further examine the effects of 58B1 on histone demethylase, we screened a panel of purified histone demethylases was screened.

UTX (KDM6A) = UTX (KDM6A) (Homo sapiens, UniProt O15550); experiment: Histone demethylase assay, purified enzyme panel; format: biochemical; conditions: Reference inhibitor
Description: as §1, §2

JMJD1A (KDM3A) = molecular target: T1, JMJD1A (KDM3A) (Homo sapiens, UniProt Q9Y4C1); experiment: Histone demethylase assay / KDM3A enzymatic activity in vitro; format: biochemical; conditions: for enzymatic activity of KDM3A: FIG. 12C
T1 sequence (Q9Y4C1 1-1321): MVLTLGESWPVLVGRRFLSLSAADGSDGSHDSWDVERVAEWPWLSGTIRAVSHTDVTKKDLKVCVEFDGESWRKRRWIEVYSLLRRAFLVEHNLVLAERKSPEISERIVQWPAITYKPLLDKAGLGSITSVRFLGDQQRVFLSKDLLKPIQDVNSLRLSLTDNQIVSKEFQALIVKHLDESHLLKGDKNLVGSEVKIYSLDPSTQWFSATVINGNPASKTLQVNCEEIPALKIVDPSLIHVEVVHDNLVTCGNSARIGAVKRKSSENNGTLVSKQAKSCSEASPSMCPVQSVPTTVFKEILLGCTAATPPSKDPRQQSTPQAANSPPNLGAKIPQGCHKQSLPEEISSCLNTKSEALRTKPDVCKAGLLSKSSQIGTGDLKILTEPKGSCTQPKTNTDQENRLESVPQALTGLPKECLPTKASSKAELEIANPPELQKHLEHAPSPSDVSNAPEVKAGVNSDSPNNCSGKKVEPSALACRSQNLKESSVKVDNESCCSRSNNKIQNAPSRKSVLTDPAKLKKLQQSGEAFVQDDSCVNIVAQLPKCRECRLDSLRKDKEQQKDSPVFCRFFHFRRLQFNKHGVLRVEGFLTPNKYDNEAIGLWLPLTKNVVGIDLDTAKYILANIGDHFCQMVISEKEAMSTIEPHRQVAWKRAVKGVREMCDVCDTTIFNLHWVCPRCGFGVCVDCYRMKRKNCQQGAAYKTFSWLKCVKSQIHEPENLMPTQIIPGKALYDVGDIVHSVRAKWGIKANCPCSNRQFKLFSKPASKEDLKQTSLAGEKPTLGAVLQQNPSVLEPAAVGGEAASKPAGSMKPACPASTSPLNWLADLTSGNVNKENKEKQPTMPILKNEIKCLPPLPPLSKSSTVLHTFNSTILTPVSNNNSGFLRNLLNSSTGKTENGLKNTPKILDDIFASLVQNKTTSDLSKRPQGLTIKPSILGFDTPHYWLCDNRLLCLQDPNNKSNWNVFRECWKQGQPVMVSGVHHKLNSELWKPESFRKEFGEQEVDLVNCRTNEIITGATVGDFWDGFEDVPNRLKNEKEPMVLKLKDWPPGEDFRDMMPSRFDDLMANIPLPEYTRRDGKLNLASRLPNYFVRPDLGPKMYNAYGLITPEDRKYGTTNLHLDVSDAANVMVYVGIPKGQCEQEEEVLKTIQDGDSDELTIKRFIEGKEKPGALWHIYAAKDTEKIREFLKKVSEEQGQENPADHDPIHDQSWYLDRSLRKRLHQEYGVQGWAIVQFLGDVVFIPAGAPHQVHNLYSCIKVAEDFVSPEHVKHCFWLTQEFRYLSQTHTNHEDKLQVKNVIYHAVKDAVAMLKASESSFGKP
Description: as §1, §2
Identification of KDM3A as a target of CBA-1. KDM3A regulated H3K9Me^2 and underwent significant upregulation in CRC. To test if CBA-1 targeted KDM3A, a biotinylated analog CBA-B2 (FIG. 7A) was synthesized. […] Knocking-down KDM3A by shRNA inhibited cell proliferation (FIG. 7D) and Wnt target gene expression in LS174T CRC cells (FIG. 7E).
(§3) Repurposing drugs as CBA-1 analogs and KDM3 inhibitors. CBA-1 is a specific and potent KDM3A inhibitor. As backup candidates, two approved drugs were identified as CBA-1 analogs and KDM3A inhibitors. Based on the docking study (FIGS. 8A-B), the N and OH groups (red color in FIG. 12A) are critical in binding the Mn^2+ in KDM3A. […] A virtual screening was performed and several antibiotics that have similar structures were identified. Two of these antibiotics, clioquinol and nitroxoline (FIG. 12B), indeed inhibited the enzymatic activities of KDM3 (FIGS. 12C and D). These two drugs were tested in LS174T tumor xenograft model in SCID mice. […] Nitroxoline has been used in Europe for over 50 years as an antibiotic. It has anticancer effects, but the mechanism remains unclear.

KDM3B = KDM3B (Homo sapiens, UniProt Q7LBC6); experiment: KDM3B enzymatic activity; format: biochemical; conditions: FIG. 12D
Description: Other KDM3 members as CBA-1 targets. Inhibition of KDM3A by CBA-1 increased H3K9Me^2 and inhibited Wnt signaling; however, other KDM3 members may also regulate H3K9 methylation. For example, both KDM3B and KDM3C (JMJD1C) regulated Wnt signaling. Given the high similarity of their structures (FIG. 10A), particularly the JmjC domains, it is believed that CBA-1 would inhibit KDM3B and KDM3C as well. […] CBA-1 coordinated with Mn^2+ at a longer distance in KDM3B (3.9 Å) than the distance in KDM3A (2.8 Å) (FIGS. 8B and 10B). This could be one of the reasons that CBA-1 inhibited KDM3A better than KDM3B.
as §3

LS174T CRC xenografts = experiment: LS174T tumor xenograft model in SCID mice; format: in vivo; conditions: 50 mg/kg, p.o.
Description: FIGS. 12A-E show images and graphs illustrating CBA-1 analogs from antibiotics. (A) Interaction of CBA-1 with Mn^2+. (B) Clioquinol (X=Cl; Y=I) and nitroxoline. (C-D) Inhibition of (C) KDM3A and (D) KDM3B enzymatic activities. (E) CBA-1 analogs (50 mg/kg, p.o.) inhibited LS174T CRC xenografts in SCID mice.
as §3

[1] = Homo sapiens, HEK-293T, Table 1, HEK293T TOPFlash, 25 mM LiCl after 6 h

Sequence of KDM3B (Q7LBC6 whole entry, the tested form may be a part): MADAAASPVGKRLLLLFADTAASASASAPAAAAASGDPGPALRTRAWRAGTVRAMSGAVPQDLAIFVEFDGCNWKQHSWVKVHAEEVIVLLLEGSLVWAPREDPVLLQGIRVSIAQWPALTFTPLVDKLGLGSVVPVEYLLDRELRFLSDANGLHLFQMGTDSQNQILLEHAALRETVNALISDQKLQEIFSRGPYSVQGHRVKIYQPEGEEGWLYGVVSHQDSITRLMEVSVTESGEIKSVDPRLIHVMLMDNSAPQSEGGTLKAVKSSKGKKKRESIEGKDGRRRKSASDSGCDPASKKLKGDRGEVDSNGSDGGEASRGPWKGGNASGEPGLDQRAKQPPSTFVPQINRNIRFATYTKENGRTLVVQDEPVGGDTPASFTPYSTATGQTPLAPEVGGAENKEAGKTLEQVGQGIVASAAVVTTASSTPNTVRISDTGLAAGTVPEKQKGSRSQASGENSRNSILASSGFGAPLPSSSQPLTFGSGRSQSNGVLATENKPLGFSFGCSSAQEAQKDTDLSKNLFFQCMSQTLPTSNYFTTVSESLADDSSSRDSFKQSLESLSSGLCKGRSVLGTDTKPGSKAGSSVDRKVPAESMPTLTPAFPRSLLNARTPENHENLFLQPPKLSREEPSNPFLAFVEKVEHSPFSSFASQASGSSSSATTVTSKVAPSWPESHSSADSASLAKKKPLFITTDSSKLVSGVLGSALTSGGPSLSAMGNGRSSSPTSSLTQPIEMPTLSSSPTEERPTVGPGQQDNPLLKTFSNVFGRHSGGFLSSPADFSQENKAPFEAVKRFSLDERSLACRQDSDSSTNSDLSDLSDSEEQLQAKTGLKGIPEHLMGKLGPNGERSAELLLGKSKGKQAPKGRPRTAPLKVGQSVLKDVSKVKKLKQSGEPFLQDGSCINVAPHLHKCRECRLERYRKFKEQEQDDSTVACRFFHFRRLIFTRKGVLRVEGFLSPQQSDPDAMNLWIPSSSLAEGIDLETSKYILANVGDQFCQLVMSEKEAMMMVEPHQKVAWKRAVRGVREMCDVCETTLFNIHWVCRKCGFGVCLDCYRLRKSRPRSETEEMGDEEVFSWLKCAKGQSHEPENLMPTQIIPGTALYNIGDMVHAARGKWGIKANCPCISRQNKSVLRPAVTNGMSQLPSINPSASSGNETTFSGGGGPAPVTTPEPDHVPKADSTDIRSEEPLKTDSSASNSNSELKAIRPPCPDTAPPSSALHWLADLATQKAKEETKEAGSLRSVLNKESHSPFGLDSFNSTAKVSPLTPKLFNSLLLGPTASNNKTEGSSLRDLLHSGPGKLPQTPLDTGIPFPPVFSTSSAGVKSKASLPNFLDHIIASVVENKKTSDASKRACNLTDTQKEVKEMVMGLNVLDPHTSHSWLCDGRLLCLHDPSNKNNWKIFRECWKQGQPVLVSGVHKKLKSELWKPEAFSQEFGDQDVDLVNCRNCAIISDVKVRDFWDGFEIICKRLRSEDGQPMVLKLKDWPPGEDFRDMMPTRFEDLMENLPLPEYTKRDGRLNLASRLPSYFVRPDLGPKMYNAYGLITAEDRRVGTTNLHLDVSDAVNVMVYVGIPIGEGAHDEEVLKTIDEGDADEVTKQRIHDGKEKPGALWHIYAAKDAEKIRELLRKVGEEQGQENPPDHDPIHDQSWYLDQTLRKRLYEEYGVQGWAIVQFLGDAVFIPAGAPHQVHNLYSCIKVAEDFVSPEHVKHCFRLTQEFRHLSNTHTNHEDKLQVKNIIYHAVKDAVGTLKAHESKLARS
Sequence of Jarid1B (KDM5B) (Q9UGL1 whole entry): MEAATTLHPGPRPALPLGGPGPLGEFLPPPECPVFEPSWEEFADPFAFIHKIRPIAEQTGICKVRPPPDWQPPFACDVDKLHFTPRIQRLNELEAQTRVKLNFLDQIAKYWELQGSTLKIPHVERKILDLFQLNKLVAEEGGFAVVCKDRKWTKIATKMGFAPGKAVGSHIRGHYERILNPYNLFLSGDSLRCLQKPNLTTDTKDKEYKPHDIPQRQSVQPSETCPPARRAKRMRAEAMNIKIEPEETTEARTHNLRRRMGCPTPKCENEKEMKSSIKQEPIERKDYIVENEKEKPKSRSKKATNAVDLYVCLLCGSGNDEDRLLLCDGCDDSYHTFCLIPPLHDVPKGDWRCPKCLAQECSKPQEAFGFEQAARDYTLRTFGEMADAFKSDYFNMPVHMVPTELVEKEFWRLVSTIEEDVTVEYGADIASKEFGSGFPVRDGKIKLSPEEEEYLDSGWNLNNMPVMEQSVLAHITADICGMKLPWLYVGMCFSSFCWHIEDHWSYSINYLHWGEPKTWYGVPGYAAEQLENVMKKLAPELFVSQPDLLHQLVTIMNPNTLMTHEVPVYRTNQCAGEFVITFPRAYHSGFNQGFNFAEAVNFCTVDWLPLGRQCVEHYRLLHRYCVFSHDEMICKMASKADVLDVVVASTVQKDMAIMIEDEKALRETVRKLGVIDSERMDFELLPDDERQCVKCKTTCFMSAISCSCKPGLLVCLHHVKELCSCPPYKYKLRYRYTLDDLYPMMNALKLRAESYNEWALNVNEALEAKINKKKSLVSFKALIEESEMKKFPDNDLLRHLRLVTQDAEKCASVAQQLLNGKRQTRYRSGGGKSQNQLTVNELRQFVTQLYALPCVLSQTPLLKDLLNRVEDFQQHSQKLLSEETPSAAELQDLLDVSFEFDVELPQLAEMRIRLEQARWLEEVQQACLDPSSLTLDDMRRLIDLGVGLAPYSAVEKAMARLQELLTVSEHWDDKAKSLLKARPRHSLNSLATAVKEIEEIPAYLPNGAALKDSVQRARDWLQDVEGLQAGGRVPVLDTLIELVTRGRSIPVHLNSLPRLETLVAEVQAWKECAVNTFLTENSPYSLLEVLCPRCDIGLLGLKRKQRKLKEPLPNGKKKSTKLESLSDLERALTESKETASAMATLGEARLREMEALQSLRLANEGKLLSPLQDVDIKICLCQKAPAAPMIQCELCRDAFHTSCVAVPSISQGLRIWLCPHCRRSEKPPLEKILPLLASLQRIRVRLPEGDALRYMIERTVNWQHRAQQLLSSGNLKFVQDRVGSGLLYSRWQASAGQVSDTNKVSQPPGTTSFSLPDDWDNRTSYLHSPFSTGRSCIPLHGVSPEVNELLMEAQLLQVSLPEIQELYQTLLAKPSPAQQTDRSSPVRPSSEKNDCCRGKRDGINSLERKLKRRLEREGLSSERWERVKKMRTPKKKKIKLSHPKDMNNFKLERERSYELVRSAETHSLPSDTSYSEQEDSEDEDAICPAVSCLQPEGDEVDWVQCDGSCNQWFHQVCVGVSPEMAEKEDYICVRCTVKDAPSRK
Sequence of UTX (KDM6A) (O15550 whole entry): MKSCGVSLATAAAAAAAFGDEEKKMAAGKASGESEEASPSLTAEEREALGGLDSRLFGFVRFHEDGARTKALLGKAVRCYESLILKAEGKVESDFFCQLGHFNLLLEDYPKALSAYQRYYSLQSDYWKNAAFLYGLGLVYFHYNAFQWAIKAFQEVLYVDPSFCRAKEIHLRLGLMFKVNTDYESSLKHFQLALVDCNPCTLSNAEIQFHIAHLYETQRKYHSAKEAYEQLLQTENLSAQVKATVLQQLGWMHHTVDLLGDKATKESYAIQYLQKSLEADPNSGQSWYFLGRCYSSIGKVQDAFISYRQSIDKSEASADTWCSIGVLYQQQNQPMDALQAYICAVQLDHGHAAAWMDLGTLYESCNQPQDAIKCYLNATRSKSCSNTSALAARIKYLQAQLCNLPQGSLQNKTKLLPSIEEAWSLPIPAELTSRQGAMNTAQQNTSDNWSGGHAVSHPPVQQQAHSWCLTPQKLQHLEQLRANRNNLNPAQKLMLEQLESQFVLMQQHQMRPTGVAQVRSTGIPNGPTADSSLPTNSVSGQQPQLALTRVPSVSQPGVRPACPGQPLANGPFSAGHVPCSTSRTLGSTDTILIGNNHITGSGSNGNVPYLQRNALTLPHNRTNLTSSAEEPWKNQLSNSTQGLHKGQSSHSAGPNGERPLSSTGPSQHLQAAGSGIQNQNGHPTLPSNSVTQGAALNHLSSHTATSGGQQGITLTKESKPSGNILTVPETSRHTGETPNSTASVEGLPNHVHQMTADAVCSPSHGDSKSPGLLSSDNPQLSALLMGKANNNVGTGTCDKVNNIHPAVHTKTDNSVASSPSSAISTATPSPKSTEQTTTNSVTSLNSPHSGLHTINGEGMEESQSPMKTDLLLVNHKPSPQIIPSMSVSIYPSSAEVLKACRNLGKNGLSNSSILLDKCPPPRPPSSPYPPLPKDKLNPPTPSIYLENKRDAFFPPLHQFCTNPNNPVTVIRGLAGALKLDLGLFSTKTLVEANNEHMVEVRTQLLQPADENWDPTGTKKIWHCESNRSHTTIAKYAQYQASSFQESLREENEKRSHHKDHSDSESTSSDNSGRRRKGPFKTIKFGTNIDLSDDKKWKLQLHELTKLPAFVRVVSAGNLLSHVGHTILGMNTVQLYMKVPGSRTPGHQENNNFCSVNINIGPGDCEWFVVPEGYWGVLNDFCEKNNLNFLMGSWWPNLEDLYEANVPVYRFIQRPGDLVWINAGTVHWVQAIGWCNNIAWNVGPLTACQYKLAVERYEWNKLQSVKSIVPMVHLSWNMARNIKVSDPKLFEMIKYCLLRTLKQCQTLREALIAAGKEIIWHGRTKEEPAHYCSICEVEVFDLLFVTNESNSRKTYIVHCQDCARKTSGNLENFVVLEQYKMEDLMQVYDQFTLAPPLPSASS

SMILES: CCCC(=O)NC(c1ccco1)c1cc(Cl)c2cccnc2c1O (centres unmarked) [48M1]
inhibition (Wnt signaling; [1]): 82%

SMILES: CCC(=O)NC(c1ccco1)c1cc(Cl)c2cccnc2c1O (centres unmarked) [58B6]
inhibition (Wnt signaling; [1]): 73%

SMILES: CC(=O)NC(c1ccc(N(C)C)cc1)c1cc(Cl)c2cccnc2c1O (centres unmarked) [58D8]
inhibition (Wnt signaling; [1]): 90%

SMILES: CCCC(=O)NC(c1ccc(N(C)C)cc1)c1cc(Cl)c2cccnc2c1O (centres unmarked) [58F8]
inhibition (Wnt signaling; [1]): 88%

SMILES: CC(=O)NC(c1ccc(Cl)cc1)c1cc([N+](=O)[O-])c2cccnc2c1O (centres unmarked) [58H8]
inhibition at 2.5 µM (Wnt signaling; Homo sapiens, HEK-293T, Table 1, HEK293T TOPFlash, 2.5 µM of each compound, 25 mM LiCl after 6 h): 80%

SMILES: O=C(O)CCNc1cc(N2CCc3ccccc3CC2)nc(-c2ccccn2)n1 [GSK-J1, reference compound]
% Inhibition (Jarid1B (KDM5B)): 100%
% Inhibition (UTX (KDM6A)): 100%

% Inhibition (JMJD1A (KDM3A); Reference inhibitor): 100%
SMILES: Clc1ccc(N/N=C(\c2ccccc2)c2ccccn2)nc1 [JIB-04]

SMILES: CC(C)C(=O)NC(c1ccco1)c1ccc2cccnc2c1O (centres unmarked) [SD70, reference compound]
Percent inhibition at 1 μM (Wnt signaling; 1 µM): 53.8%
Percent inhibition at 1 μM (Wnt signaling; listed as VMS-7-175, 1 µM): 49.7%

SMILES: CCCC(=O)NC(c1ccc(N2CCC(C(=O)OCC)CC2)cc1)c1cc(Cl)c2cccnc2c1O (centres unmarked) [VMS-7-183]
Percent inhibition at 1 μM (Wnt signaling): 85.6%

SMILES: Oc1c(I)cc(Cl)c2cccnc12 [clioquinol]
enzymatic activity of KDM3B (KDM3B): inhibited
tumor growth (LS174T CRC xenografts): inhibited tumor growth
enzymatic activity of KDM3A (JMJD1A (KDM3A)): inhibited

enzymatic activity of KDM3B (KDM3B): inhibited
enzymatic activity of KDM3A (JMJD1A (KDM3A)): inhibited
SMILES: O=[N+]([O-])c1ccc(O)c2ncccc12 [nitroxoline]
tumor growth (LS174T CRC xenografts): inhibited tumor growth
